According to ChEMBL document CHEMBL3046304, “Discovery of a series of novel compounds with moderate anti-avian H5N1 influenza virus activity in chick embryo” (Med Chem Res, 2013):

Tests used:
Influenza A virus [1] = test: Ratio of compound MED to oseltamivir MED for influenza A virus (A/duck/China/QJ/01(H5N1)) infected in chick embryo measured after 5 days by hemagglutination assay; type: functional
Influenza A virus [2] = type: functional
Neuraminidase [3] = target: T1, Neuraminidase (Influenza A virus, UniProt B4URF0); set-up: species or system (A/duck/China/QJ/01(H5N1))
T1 sequence (B4URF0 whole entry): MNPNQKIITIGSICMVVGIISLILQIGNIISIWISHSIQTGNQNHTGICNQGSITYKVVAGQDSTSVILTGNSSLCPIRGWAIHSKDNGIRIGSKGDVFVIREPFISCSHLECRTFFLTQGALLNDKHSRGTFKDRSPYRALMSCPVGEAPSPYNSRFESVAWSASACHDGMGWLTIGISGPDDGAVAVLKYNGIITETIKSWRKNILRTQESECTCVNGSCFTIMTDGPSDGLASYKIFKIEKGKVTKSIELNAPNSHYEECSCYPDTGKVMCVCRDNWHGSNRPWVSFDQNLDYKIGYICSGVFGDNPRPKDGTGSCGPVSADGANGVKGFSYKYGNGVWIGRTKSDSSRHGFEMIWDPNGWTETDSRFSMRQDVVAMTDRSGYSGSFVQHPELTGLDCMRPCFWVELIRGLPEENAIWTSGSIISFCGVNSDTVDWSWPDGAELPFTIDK

Influenza A virus [4] = test: Ratio of compound MED to oseltamivir carboxylate MED for influenza A virus (A/duck/China/QJ/01(H5N1)) infected in chick embryo measured after 5 days by hemagglutination assay; type: functional
Neuraminidase [5] = target: T1, Neuraminidase; set-up: species or system (A/chicken/Shandong/LY/2008(H9N2))
[6] = Inhibition of neuraminidase

SMILES	Ratio (Influenza A virus [1])	MED (Influenza A virus [2]) [µM]	IC50 (Neuraminidase [3]) [µM]	Ratio (Influenza A virus [4])	IC50 (Neuraminidase [5]) [µM]	IC50 [6] [µM]
Cl.NCCC(=O)Nc1cc(NC(=O)/C=C/c2ccco2)ccc1O	4	5	108	4	118	
NC(Cn1ccc(=O)c(O)c1)C(=O)N[C@@H](Cc1ccccc1)C(=O)O (stereo partly specified)						1.8
O=c1cc(-c2ccc(O)cc2)oc2cc(O)cc(O)c12 [APIGENIN]	4			4		
CC(C)[C@H](N)C(=O)Nc1cc(NC(=O)/C=C/c2ccco2)ccc1O.Cl	4	2.5	175	4	165	
Cl.N[C@@H](CO)C(=O)Nc1cc(NC(=O)/C=C/c2ccco2)ccc1O	4	5	143	4	158	
Cl.N=C(NCCC[C@H](N)C(=O)Nc1cc(NC(=O)/C=C/c2ccco2)ccc1O)N[N+](=O)[O-]	4	5	192	4	193	
Cl.O=C(/C=C/c1ccco1)Nc1ccc(O)c(NC(=O)[C@@H]2C[C@@H](O)CN2)c1	4	5	109	4	111	
NC(Cn1ccc(=O)c(O)c1)C(=O)N[C@@H](Cc1ccc(O)cc1)C(=O)O (stereo partly specified)						2.8
Cl.NCCCC[C@H](N)C(=O)Nc1cc(NC(=O)/C=C/c2ccco2)ccc1O	4	5	225	4	215	
Cl.N[C@@H](Cc1c[nH]c2ccccc12)C(=O)Nc1cc(NC(=O)/C=C/c2ccco2)ccc1O	4	2.5	189	4	194	
Cl.NCC(=O)Nc1cc(NC(=O)/C=C/c2ccco2)ccc1O	4	5	139	4	175	
Cl.O=C(/C=C/c1ccco1)Nc1ccc(O)c(NC(=O)[C@@H]2CCCN2)c1	4	5	57.8	4	85.3	
CC(C)C[C@H](N)C(=O)Nc1cc(NC(=O)/C=C/c2ccco2)ccc1O.Cl	4	5	148	4	179	
C[C@H](N)C(=O)Nc1cc(NC(=O)/C=C/c2ccc(O)c(O)c2)ccc1O.Cl	4	5	113	4	105	
CC(C)C[C@H](N)C(=O)Nc1cc(NC(=O)/C=C/c2ccc(O)c(O)c2)ccc1O.Cl	4	2.5	135	4	154	
CC[C@H](C)[C@H](N)C(=O)Nc1cc(NC(=O)/C=C/c2ccco2)ccc1O.Cl	4	2.5	103	4	119	
Cl.NCCCC(=O)Nc1cc(NC(=O)/C=C/c2ccco2)ccc1O	4	5	132	4	167	
CC[C@H](C)[C@H](N)C(=O)Nc1cc(NC(=O)/C=C/c2ccc(O)c(O)c2)ccc1O.Cl	4	2.5	0.012	4	0.0017	
CC(C)[C@H](N)C(=O)Nc1cc(NC(=O)/C=C/c2ccc(O)c(O)c2)ccc1O.Cl	4	2.5	114	4	138	
Cl.N[C@@H](Cc1ccccc1)C(=O)Nc1cc(NC(=O)/C=C/c2ccco2)ccc1O	4	5	130	4	143	
C[C@@H](O)[C@H](N)C(=O)Nc1cc(NC(=O)/C=C/c2ccco2)ccc1O.Cl	4	5	187	4	200	
CCC(CC)O[C@@H]1C=C(C(=O)O)C[C@H](N)[C@H]1NC(C)=O.Cl [OSELTAMIVIR CARBOXYLATE HYDROCHLORIDE]		0.625				
CSCC[C@H](N)C(=O)Nc1cc(NC(=O)/C=C/c2ccco2)ccc1O.Cl	4	5	121	4	144	
C[C@H](N)C(=O)Nc1cc(NC(=O)/C=C/c2ccco2)ccc1O.Cl	4	5	110	4	91.7	
CCOC(=O)C1=C[C@@H](OC(CC)CC)[C@H](NC(C)=O)[C@@H](N)C1.O=P(O)(O)O [OSELTAMIVIR PHOSPHATE]		0.625				
